Data on 1 compound can be found in patent US7683097B2, “Topoisomerase inhibitors” (Propharmacon Inc., priority 2004, dated 2010).

Data set [1] has as its target T1, Topo I (Homo sapiens, UniProt P11387).
T1 sequence (P11387 1-765): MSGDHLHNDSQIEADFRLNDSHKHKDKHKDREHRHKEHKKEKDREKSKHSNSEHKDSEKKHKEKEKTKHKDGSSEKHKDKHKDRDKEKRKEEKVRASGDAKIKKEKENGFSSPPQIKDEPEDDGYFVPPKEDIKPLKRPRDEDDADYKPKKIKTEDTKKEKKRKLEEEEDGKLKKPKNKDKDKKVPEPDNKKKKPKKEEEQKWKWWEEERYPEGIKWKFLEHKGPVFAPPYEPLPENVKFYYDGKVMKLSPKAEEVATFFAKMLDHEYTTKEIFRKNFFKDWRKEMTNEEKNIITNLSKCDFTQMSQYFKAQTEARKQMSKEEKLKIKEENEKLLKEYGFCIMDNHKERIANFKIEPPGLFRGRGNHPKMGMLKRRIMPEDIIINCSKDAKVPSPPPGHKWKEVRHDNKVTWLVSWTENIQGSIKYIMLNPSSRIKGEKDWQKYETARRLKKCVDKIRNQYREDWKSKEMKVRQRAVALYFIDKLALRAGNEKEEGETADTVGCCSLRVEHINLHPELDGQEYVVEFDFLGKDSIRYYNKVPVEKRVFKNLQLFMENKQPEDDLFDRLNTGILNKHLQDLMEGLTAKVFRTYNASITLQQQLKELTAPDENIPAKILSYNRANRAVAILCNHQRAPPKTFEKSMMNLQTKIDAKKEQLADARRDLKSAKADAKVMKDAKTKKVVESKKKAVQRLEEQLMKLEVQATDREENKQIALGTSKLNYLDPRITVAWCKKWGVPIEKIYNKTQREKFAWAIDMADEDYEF
Kind of data set: Topo I covalent complex stabilization test. Type of data set: biochemical. The settings on record: similar tests as for Topo IIα. The source says: (§1) To determine if the compound 320 stabilizes the TopoIIα-DNA covalent complex, cleavage intermediates are trapped by the addition of SDS to the reaction (Wilson Byl, J. A., et al., Biochemistry, 40, 712-718, 2001). After proteinase K digestion to digest any covalently bound Topo, the products are electrophoresed and stained with EtBr. The appearance of an additional band that is a linear form of the 2.5 Kb minicircle product is indicative of a compound's ability to stabilize the covalent complex.

Data set [2] has as its system MCF-7. The experiment in a line: Cell proliferation assay, MCF-7. Type of data set: cell-based. The settings on record: Homo sapiens, MCF7; 48 hrs exposure, Alamar Blue, FIG. 6; no shift between MCF-7 and MCF-7/ADR; read-out: approximate IC50, cell proliferation. As for the experimental part:
(§2) The MCF-7 cell line, the MDR cell line, and the MCF-7/ADR cell line were used. Alamar Blue™ was used to quantitate cell viability.
The compounds listed in Table II were prepared using the procedures outlined in the above Examples.
A general note: The colour change of resazurin is a common sign of viable cells or microbes.

Data set [3] concerns MCF-7/ADR. The experiment in a line: Cell proliferation assay, MDR line MCF-7/ADR. The format is cell-based, human. The settings on record: 48 hrs exposure; less potent in MCF-7/ADR.
Source text: as §2

Data set [4] has as its target T2, human Topo IIα (Homo sapiens, UniProt P11388).
T2 construct: purchased Topogen Inc. Columbus, Ohio
The experiment in a line: Topo IIα decatenation inhibition assay (kDNA, agarose gel). The format is biochemical. The settings on record: sample gel, FIG. 2; kDNA substrate.
Source text: When present, high molecular weight kDNA has not migrated from the loading well.
The enzyme assays used for determining Topo IIα inhibition was either the ATP-dependent decatenation of high molecular weight kDNA (kinetoplast) as substrate or the relaxation of supercoiled pBR322 each incorporating human Topo IIα (Topogen Inc. Columbus, Ohio) and following literature protocols (Fortune, J. M. et al., J. Biol. Chem., 273(28), 17643-50 1998; Muller, M. T. et al., Biochemistry, 27(22), 8369-79, 1988). The 2.5 Kd mini-circle product derived from the catenated substrate is resolved on an agarose gel with ethidium bromide staining after electrophoresis. Likewise, the relaxed form of pBR322 is resolved from the faster moving supercoiled form during electrophoresis.

Data set [5] in a line: Acute toxicological study, i.p. Type of data set: in vivo. As to conditions: female CD-1 mice, n=3, seven days.
Experimental: (§3) An acute toxicological study was performed for 320 prior to the xenograft study. Two groups (n=3) of female CD-1 mice were injected intraperitoneally (i.p.) with either 10 or 100 mg/Kg of 320 dissolved in 5% DMSO, 10% PEG400. […] A second MTD study was done by the intravascular (i.v.) route using 4 groups of CD-1 mice for the following: vehicle, 3, 10 and 30 mg/Kg injections which were to be given daily for days 1-5 and study duration of two weeks, at which point survivors would be euthanised.
The conditions of data set [6]: mouse, in vivo, iv.
Experimental: as §3
Data set [7] concerns the target TopoIIα-DNA covalent complex (Homo sapiens, UniProt P11388). The experiment in a line: Topo IIα DNA covalent complex stabilization assay. The format is biochemical. As to conditions: SDS trapping, proteinase K, FIG. 5.
Source text: as §1

The test system of data set [8] is NCI-H460. Kind of data set: NCI-H460 human xenograft study in nude mice. As to conditions: i.v., 320 25 mg/Kg days 1-5, etoposide 35 mg/Kg days 7, 10, 14. (In general: Xenograft models place foreign cells or tissue in a host animal.)
Experimental: as §3
All injections were by the i.v. route; groups were 5 NCR nu/nu mice. The cell line NCI-H460 was used to produce the tumors that appeared by day 7. […] All survivors to day 28 were euthanised at this time and tumor volumes measured.

The structures appear in SMILES notation. Where two headings read alike, the source gives them in different places.

Chain of TopoIIα-DNA covalent complex (P11388 whole entry, one chain of several): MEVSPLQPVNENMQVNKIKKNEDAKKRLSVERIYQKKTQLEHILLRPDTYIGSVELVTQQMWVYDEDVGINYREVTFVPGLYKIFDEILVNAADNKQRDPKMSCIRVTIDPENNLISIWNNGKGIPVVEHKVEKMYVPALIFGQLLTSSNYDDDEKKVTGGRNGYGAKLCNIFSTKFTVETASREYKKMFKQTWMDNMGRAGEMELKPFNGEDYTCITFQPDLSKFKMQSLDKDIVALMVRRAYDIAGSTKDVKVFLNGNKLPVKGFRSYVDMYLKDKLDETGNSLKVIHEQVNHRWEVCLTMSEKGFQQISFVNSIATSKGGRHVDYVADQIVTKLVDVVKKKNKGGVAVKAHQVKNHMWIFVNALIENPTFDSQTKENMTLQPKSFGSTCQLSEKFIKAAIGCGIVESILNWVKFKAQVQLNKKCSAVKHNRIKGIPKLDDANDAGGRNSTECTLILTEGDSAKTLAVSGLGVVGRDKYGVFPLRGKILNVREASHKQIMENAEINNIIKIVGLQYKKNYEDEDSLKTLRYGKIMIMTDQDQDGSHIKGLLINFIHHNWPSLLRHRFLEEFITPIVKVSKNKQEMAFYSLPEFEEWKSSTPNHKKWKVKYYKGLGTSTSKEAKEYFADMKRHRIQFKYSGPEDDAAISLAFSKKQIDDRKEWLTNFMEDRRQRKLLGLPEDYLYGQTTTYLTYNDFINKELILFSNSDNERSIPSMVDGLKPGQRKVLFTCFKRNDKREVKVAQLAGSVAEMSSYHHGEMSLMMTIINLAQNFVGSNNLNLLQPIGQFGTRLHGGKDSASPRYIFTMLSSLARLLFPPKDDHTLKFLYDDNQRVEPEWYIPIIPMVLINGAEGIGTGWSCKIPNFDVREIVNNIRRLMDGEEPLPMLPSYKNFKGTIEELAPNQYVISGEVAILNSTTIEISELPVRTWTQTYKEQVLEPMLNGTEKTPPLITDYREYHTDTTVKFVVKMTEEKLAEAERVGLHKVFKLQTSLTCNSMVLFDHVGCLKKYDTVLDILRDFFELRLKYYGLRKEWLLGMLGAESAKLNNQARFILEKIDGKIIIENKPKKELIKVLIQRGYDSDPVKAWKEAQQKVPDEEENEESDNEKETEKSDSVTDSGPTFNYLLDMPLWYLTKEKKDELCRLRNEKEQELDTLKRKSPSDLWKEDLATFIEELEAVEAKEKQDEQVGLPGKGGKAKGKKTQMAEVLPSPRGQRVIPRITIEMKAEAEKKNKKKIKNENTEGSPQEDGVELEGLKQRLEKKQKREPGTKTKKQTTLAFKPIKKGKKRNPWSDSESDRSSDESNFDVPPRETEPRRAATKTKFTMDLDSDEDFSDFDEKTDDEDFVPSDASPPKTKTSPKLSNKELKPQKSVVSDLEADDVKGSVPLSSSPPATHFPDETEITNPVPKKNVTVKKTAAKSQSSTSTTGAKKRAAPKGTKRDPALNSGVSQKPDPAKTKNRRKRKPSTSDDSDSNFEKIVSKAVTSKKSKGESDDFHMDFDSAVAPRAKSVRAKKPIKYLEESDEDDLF
T2 sequence (P11388 whole entry): as the sequence (P11388 whole entry, one chain of several) above

In the case of `O=C(NC1(C(=O)O)Cc2ccccc2C1)c1ccc(Cl)c(-c2ccc(-c3ccccc3)cc2)c1` [Compound 320, 2-[(6″-Chloro-[1,1′;4′,1″]terphenyl-3″-carbonyl)-amino]-indan-2-carboxylic acid], the “stabilization of the covalent complex in Topo I reactions” value in data set [1] was “no apparent stabilization of the covalent complex”. The IC50 in data set [2] was roughly 30 µM. In addition, the “shift in potency, resistant line MCF-7/ADR versus parent line MCF-7” value in data set [3] is reported as “no shift in potency”. Besides, the “inhibition of Topo IIα decatenation” value in data set [4] is “complete inhibition”. For the same compound, the “survival and side effects, acute toxicity” value in data set [5] (10 mg/Kg (low dose)) is reported as “all the low dose mice survived with no visible side effects”. Besides, the “survival, acute toxicity” value in data set [5] (100 mg/Kg (high dose)) is “Two mice in the high dose group survived”. Further, the “survival, MTD study” value in data set [6] was “All other animals survived to the end of the study”; in data set [6] (30 mg/kg), “Two animals in the highest dose group survived with one animal dying after 3 injections”. Further, the “stabilization of the TopoIIα-DNA covalent complex (linear form of minicircle)” value in data set [7] is given as “does not stabilize the covalent complex”. Also, the “initial tumor growth delay” value in data set [8] is listed as “no initial growth delay”. Further, the “anti-tumor activity with respect to final tumor volume” value in data set [8] (doxorubicin 5 mg/Kg days 7 and 14, day 28) was “some final growth inhibition”.
